Experimental data as given in paper PMC6331714 (ChemistryOpen, 2019).

B1: AVPI, N-terminal tetrapeptide binding motif of Smac/DIABLO (Ala-Val-Pro-Ile) (peptide)
peptide: AVPI

Tests used:
XIAP = XIAP (Homo sapiens, UniProt P98170); assay: fluorescence polarization competition with AVPFAQK; assay type: binding
[1] = biological target: X-linked inhibitor of apoptosis protein (XIAP) BIR3 domain; assay: fluorescence polarisation

Chain of XIAP (P98170 241-356 limits assumed): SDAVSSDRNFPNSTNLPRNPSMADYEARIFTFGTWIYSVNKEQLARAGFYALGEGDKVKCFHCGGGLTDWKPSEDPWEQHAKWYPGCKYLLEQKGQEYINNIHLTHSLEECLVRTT

Molecule | IC50 (XIAP) | IC50 [1]
C[C@H](N)C(=O)N[C@H]1CNC(=O)C[C@H]2CC[C@@H](C(=O)NC(c3ccccc3)c3ccccc3)N2C1=O [ZJ-1, (5 S ,8 S ,10aR)‐5‐((S)‐2‐aminopropanamido)‐N‐benzhydryl‐2,6‐dioxodecahydropyrrolo[1,2‐a][1,5] diazocine‐8‐carboxamide] | 210 nM | 
B1 |  | 1150 nM
